Measurements taken from paper PMC3404088, “Development of a Small D-Enantiomeric Alzheimer’s Amyloid-β Binding Peptide Ligand for Future In Vivo Imaging Applications” (PLoS ONE, 2012).
Square brackets hold non-standard residues; d marks the D form. Peptide text beside a SMILES is read from it. * marks the point of attachment. 5FAM = O=C1OC2(c3ccc(O)cc3Oc3cc(O)ccc32)c2ccc(C(=O)*)cc21

Legend:
Aβ1–42 fibrils = molecular target: T1, Aβ1–42 fibrils (Homo sapiens, UniProt P05067); experiment: SPR single cycle experiments (Biacore T100), heterogeneous ligand model; assay type: binding; set-up: Rmax1 / Rmax2 / k off2: unit not given here; details: for Rmax2 / k off1 / k off2 / k on1 / k on2 / Rmax1: PBS pH 7.4, 25°C, 30 µl/min; for Rmax1: global fit of three lowest responding concentrations
T1 construct: Aβ1–42 was dissolved in hexafluoroisopropanol (HFIP)
T1 sequence (P05067 672-713 limits assumed): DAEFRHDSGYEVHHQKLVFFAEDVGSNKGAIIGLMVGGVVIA
Protocol: Aβ1–42 fibrils were prepared as described above. Thereafter, the sample was centrifuged for 10 min at 16000×g, the supernatant discarded and this procedure repeated for 3 times. Formation of fibrils was confirmed by a standard Thioflavin-T fluorescence assay. Aβ1–42 fibrils were covalently immobilized on a CM5 sensor chip via amine coupling. Prior to immobilization of Aβ1–42 fibrils the sample was centrifuged and fibrils resuspended in 10 mM sodium acetate buffer pH 4.0. Flow cell sensor surfaces were activated with a freshly prepared solution of 0.2 M 1-ethyl–3-(3-dimethylaminopropyl)-carbodiimide (EDC) and 0.05 M N-hydroxysuccinimide (NHS) at a constant flow rate of 10 µl/min for 420 s. Aβ1–42 fibrils (∼ 110 µM monomeric Aβ1–42) were injected for 600 s with a flow rate of 10 µl/min. Deactivation of the surface was performed by injection of 1 M ethanolamine-HCl pH 8.5 at the same flow rate and duration as in the activation step. In the reference cells the deactivation step was performed directly after the activation step. All SPR experiments were performed on a Biacore T100 system with series S CM5 sensor chips at 25°C. The system was run with the Biacore T100 Control Software Version 1.1.1. PBS (10 mM sodium phosphate buffer pH 7.4, 137 mM NaCl, 2.7 mM KCl) was chosen as running buffer (as previously during fibril formation) in order to minimize alterations of fibril organization. All buffers were sterile filtered (0.22 µm). After each docking of a sensor chip the detector was normalized with BIAnormalizing solution (70% glycerol, GE Healthcare) to compensate for slight differences in detector responses of individual sensor chips. For all interaction analyses the Type 1 reagent rack was used. Siliconized sample vials were used with their corresponding rubber caps (Type 2, GE Healthcare) to minimize evaporation effects. Throughout all runs the flow rate was set to 30 µl/min. All interaction studies were performed in single-cycle mode. Here, five different concentrations of analyte were passed through a reference cell and subsequently through flow cells with immobilized ligand within the same binding cycle for 60 seconds, starting with the lowest concentration. Successive injections were performed in the order of increasing concentrations. Each following concentration was a fivefold increase of the previous. The lowest analyte concentration was chosen to be 100 nM and therefore the following were 500, 2500, 12500 and 62500 nM. Biacore data were evaluated using BiaEvaluation 4.1.1 (GE Healthcare) and Biacore T100 Evaluation Software (GE Healthcare). Obtained binding data with compounds were double referenced. This was achieved by collecting the data in dual-channel mode with a reference flow cell connected upstream of the flow cell with immobilized Aβ1–42 fibrils and the subtraction of the obtained binding responses with a blank buffer injection (PBS).

[1] = Analysis of ACI-80 stability: N-terminal glutamine vs pyroglutamate content by HPLC/ESI-MS; assay type: physicochemical; details: aqueous solution
Protocol: In solution, N-terminal glutamine peptides such as D1 are prone to convert into N-terminal pyroglutamate species: Gln-SHYRHISPAQV → Pyr-SHYRHISPAQV. Therefore, the stability of solid ACI-80, solid ACI-80-Kϕ (ϕ: fluorescein isothiocyanate, covalently linked to the peptide via a lysine (K)) and [^127I]-ACI-80 in solution was investigated by JPT Peptide Technologies GmbH, Berlin, Germany using HPLC/ESI-MS whereby the relative content of N-terminal Gln peptide and N-terminal Pyr peptide was assessed.
An important observation during initial compound stability characterization experiments was the partial conversion of the N-terminal glutamine of [^127I]-ACI-80 into pyro-glutamate. It is known that peptides with an N-terminal glutamine are prone to conversion of this residue into a pyroglutamate. Therefore, the composition of freshly synthesized and untreated ACI-80 and ACI-80-Kϕ as well as [^127I]-ACI-80 after iodination were investigated. […] It was observed that freshly synthesized ACI-80 and ACI-80-Kϕ contained only minor fractions of pyroglutamic acid while about one third of [^127I]-ACI-80 in solution already converted into N-terminal pyroglutamate species.

| Compound | Rmax2 (Aβ1–42 fibrils) | k off1 (Aβ1–42 fibrils) | k off2 (Aβ1–42 fibrils) | k on1 (Aβ1–42 fibrils) | k on2 (Aβ1–42 fibrils) | Rmax1 (Aβ1–42 fibrils) | stability in aqueous solution [1] | dissociation constant (lowest K D of the two, words) (Aβ1–42 fibrils) |
| --- | --- | --- | --- | --- | --- | --- | --- | --- |
| CC[C@@H](C)[C@@H](NC(=O)[C@@H](Cc1c[nH]cn1)NC(=O)[C@@H](CCCNC(=N)N)NC(=O)[C@@H](Cc1ccc(O)cc1)NC(=O)[C@@H](Cc1c[nH]cn1)NC(=O)[C@@H](CO)NC(=O)[C@H]1CCCN1)C(=O)N[C@H](CO)C(=O)N1CCC[C@@H]1C(=O)N[C@H](C)C(=O)N[C@H](CCC(N)=O)C(=O)N[C@H](CCCCN)C(=O)N[C@H](CCCCNC(=O)c1ccc2c(c1)C(=O)OC21c2ccc(O)cc2Oc2cc(O)ccc21)C(=O)O [ACI-89-Kϕ] (H-[dP][dS][dH][dY][dR][dH][dI][dS][dP][dA][dQ][dK][dK](5FAM)-OH; N-terminus and C-terminus assumed) | 19.4 | 0.162 | 0.0118 | 2.03e4 | 3.34e3 | 21.8 | stable in aqueous solution |  |
| CC[C@@H](C)[C@@H](NC(=O)[C@@H](Cc1c[nH]cn1)NC(=O)[C@@H](CCCNC(=N)N)NC(=O)[C@@H](Cc1ccc(O)cc1)NC(=O)[C@@H](Cc1c[nH]cn1)NC(=O)[C@@H](CO)NC(=O)[C@H](N)CCC(N)=O)C(=O)N[C@H](CO)C(=O)N1CCC[C@@H]1C(=O)N[C@H](C)C(=O)N[C@H](CCC(N)=O)C(=O)N[C@H](CCCCN)C(=O)N[C@H](CCCCNC(=O)c1ccc2c(c1)C(=O)OC21c2ccc(O)cc2Oc2cc(O)ccc21)C(=O)O [ACI-87-Kϕ] (H-[dQ][dS][dH][dY][dR][dH][dI][dS][dP][dA][dQ][dK][dK](5FAM)-OH; N-terminus and C-terminus assumed) | 36.2 | 1.84e-3 | 0.0407 | 206 | 1.57e3 | 43.3 | stable in aqueous solution |  |
| CC[C@@H](C)[C@@H](NC(=O)[C@@H](Cc1c[nH]cn1)NC(=O)[C@@H](CCCNC(=N)N)NC(=O)[C@@H](Cc1ccc(O)cc1)NC(=O)[C@@H](Cc1c[nH]cn1)NC(=O)[C@H](N)CO)C(=O)N[C@H](CO)C(=O)N1CCC[C@@H]1C(=O)N[C@H](C)C(=O)N[C@H](CCC(N)=O)C(=O)N[C@H](CCCCN)C(=O)N[C@H](CCCCNC(=O)c1ccc2c(c1)C(=O)OC21c2ccc(O)cc2Oc2cc(O)ccc21)C(=O)O [ACI-88-Kϕ] (H-[dS][dH][dY][dR][dH][dI][dS][dP][dA][dQ][dK][dK](5FAM)-OH; N-terminus and C-terminus assumed) | 63.3 | 7.22e-3 | 0.0553 | 1.71e4 | 930 | 9.96 | stable in aqueous solution | submicromolar range |
